For data set [1], the system named is LNCaP. The data set can be described thus: Induction of PGE2 production in human LNCAP cells at 41.9 nM to 100 uM after 16 hrs by HTRF assay relative to control. The class given is functional.
Data set [2] deals with LNCaP. The data set can be described thus: Induction of PGE2 production in human LNCAP cells assessed as half-maximal activation concentration after 16 hrs by HTRF assay. The class given is functional, cell-based.
Data set [3] relates to A549. The data set can be described thus: Induction of PGE2 production in human A549 cells at 775 pM to 45.8 uM after 4 to 20 hrs by HTRF assay relative to control. The class given is functional.
In data set [4] the test system is A549. In words: Induction of PGE2 production in human A549 cells assessed as concentration required for half-maximal activation after 4 to 20 hrs by HTRF assay. The class given is functional, cell-based.
The target of data set [5] is T1, Aldehyde dehydrogenase 1A1 (Homo sapiens, UniProt P00352).
T1 sequence (P00352 whole entry): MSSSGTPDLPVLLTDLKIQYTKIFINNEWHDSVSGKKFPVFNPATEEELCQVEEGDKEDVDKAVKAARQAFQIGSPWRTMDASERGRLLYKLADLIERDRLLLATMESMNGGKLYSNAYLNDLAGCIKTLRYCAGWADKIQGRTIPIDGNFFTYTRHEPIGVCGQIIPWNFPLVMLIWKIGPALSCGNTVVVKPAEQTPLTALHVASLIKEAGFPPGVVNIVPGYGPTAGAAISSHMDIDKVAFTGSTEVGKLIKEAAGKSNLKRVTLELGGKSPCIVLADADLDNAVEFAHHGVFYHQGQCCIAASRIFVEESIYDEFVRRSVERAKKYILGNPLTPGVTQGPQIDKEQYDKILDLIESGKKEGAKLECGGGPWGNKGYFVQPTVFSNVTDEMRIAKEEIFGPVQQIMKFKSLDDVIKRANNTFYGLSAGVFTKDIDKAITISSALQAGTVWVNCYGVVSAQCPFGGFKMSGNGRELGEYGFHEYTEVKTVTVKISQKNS
In words: Inhibition of ALDH1A1 (unknown origin) using NAD+/propionaldehyde as substrate after 15 mins by UV-fluorescence assay.

Data set [6] concerns the target T2, Peroxisomal multifunctional enzyme type 2 (Homo sapiens, UniProt P51659).
T2 sequence (P51659 whole entry): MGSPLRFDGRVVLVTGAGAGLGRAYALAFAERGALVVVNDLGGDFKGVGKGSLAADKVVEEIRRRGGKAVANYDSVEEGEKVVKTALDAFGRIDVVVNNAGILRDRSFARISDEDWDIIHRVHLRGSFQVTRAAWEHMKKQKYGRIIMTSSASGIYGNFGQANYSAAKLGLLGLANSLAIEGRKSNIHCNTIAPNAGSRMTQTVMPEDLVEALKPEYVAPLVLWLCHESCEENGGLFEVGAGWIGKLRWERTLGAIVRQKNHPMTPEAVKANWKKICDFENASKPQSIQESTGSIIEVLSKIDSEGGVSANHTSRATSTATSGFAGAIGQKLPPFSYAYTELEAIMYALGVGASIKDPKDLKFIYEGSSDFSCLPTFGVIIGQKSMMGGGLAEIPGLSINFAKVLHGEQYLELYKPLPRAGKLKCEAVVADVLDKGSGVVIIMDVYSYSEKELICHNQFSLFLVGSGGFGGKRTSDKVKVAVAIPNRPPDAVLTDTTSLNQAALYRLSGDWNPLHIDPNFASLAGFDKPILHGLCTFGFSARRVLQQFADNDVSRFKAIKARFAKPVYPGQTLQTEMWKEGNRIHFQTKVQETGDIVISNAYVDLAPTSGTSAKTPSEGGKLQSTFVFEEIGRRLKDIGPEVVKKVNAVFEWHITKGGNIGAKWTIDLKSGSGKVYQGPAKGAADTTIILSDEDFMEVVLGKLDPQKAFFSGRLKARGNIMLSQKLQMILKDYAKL
In words: Inhibition of HSD17beta4 (unknown origin) using NAD+/estradiol as substrate at 324 pM to 57.2 uM after 15 mins by UV-fluorescence assay.

Data set [7] concerns the target L-lactate dehydrogenase B chain (Homo sapiens, UniProt P07195). The data set can be described thus: Inhibition of LDHB (unknown origin) using sodium pyruvate as substrate at 0.46 to 57.5 uM after 15 mins by fluorescence assay.
For data set [8], the target named is L-lactate dehydrogenase A chain (Homo sapiens, UniProt P00338). The data set can be described thus: Inhibition of LDHA (unknown origin) using sodium pyruvate as substrate at 0.46 to 57.5 uM after 15 mins by fluorescence assay.
The target in data set [9] is Glyceraldehyde-3-phosphate dehydrogenase (Oryctolagus cuniculus, UniProt P46406). In words: Inhibition of rabbit muscle GAPDH using glyceraldehyde-3-phosphate as substrate at 324 pM to 57.2 uM by fluorescence assay.
The nature of data set [10]: Kinetic solubility of the compound in PBS buffer at pH 7.4. It is filed as physicochemical.
A further data set concerns Liver microsome. The data set can be described thus: Half life in rat liver microsomes in presence of NADPH. It is filed as ADME.
A short description of data set [11]: Passive permeability of the compound at pH 7.4 by PAMPA. It is filed as ADME.
Data set [12] addresses T3, 15-hydroxyprostaglandin dehydrogenase [NAD(+)] (Homo sapiens, UniProt P15428).
T3 sequence (P15428 whole entry): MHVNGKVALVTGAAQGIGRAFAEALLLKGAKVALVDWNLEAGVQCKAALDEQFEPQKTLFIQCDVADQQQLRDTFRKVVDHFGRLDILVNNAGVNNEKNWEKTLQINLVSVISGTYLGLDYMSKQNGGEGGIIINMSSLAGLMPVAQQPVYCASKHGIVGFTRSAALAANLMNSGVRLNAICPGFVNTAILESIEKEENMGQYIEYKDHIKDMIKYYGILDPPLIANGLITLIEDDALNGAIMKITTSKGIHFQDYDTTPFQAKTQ
The data set can be described thus: Inhibition of human HPGD using PGE2 as substrate after 15 mins by fluorescence assay.

The structures appear in SMILES notation.

Sequence of L-lactate dehydrogenase B chain (P07195 whole entry): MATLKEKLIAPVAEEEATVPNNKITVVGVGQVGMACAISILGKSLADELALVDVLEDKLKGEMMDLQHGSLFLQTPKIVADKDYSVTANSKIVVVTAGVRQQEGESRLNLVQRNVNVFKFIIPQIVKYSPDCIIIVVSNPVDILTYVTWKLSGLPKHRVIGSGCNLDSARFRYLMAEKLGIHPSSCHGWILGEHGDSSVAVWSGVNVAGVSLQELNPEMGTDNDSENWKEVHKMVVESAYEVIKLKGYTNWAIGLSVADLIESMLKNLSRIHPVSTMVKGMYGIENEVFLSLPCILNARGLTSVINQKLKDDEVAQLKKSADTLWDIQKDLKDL
Sequence of Glyceraldehyde-3-phosphate dehydrogenase (P46406 whole entry): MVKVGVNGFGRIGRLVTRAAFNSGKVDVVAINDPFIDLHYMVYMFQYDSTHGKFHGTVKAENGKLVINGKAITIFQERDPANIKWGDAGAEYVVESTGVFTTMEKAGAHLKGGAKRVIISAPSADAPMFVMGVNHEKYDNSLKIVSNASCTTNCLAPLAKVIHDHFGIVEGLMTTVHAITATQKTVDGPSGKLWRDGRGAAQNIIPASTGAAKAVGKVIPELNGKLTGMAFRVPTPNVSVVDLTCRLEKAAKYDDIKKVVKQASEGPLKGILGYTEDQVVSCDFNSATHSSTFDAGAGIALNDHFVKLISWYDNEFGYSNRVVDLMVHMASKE

For the molecule `Cc1cc(-c2nnc3n2CCCCC3)c(C)n1-c1ccc(Cl)c(Cl)c1`, the results for the Activity in the data set on LNCaP [1] and in the data set on A549 [3] were 105% and 110%, respectively. Further, the AC50 amounted to 352 nM in the data set with LNCaP [2] and 296 nM in the data set on A549 [4]. The IC50 in data set [5] was 607 nM; in [6], “Not Active”; in data set [7], “Not Active”; in [8], “Not Active”; in data set [9] it was “Not Active”; in [12] it was 22 nM. Moreover, the Kinetic_solubility in data set [10] is 32 µM. The t1/2 in the data set on Liver microsome was found to be 1.9 min. In addition, the permeability in [11] is 1650 ×10⁻⁶ cm/s.

For the molecule `Cc1cc(-c2nnc3n2CCCCC3)c(C)n1-c1cccc(Cl)c1`, the values for the Activity with LNCaP [1] and in the data set with A549 [3] were 68% and 114%, respectively. The AC50 amounted to 558 nM in the data set with LNCaP [2] and 590 nM in the data set with A549 [4]. Further, the IC50 was 4820 nM in data set [5]; “Not Active” in [6]; “Not Active” in [7]; “Not Active” in data set [8]; “Not Active” in data set [9]; 34 nM in [12]. The Kinetic_solubility in data set [10] stood at 37 µM. Further, the t1/2 in the data set on Liver microsome was found to be 2 min. Further, in data set [11], the permeability came out at 1100 ×10⁻⁶ cm/s.

As to `Cc1cc(-c2nnc3n2CCCCC3)c(C)n1-c1cccc(C(F)(F)F)c1`, the figures for the Activity in the data set on LNCaP [1] and in the data set on A549 [3] were 44% and 145%, respectively. In addition, the AC50 with LNCaP [2] turned out to be 2220 nM; with A549 [4], 2090 nM. Further, the IC50 was 1520 nM in data set [5]; “Not Active” in data set [6]; “Not Active” in data set [7]; “Not Active” in data set [8]; “Not Active” in data set [9]; 48 nM in data set [12]. Also, in [10], the Kinetic_solubility came to 33 µM. The t1/2 with Liver microsome was determined as 1.9 min. In [11], this molecule registered a permeability of 1510 ×10⁻⁶ cm/s.

Take `Cc1ccc(-n2c(C)cc(-c3nnc4n3CCCCC4)c2C)cc1`: the Activity was found to be 71% in the data set with LNCaP [1] and 107% in the data set with A549 [3]. Besides, the AC50 with LNCaP [2] was determined as 703 nM; in the data set on A549 [4] it was 166 nM. Besides, the IC50 in data set [5] was 2410 nM; in data set [6], “Not Active”; in data set [7] it was “Not Active”; in data set [8] it was “Not Active”; in data set [9], “Not Active”; in data set [12], 34 nM. Besides, the Kinetic_solubility in data set [10] is 28 µM. In addition, the t1/2 in the data set with Liver microsome is 1.8 min. In data set [11], this molecule registered a permeability of 1330 ×10⁻⁶ cm/s.

Turning to `Cc1cc(-c2nnc3n2CCCCC3)c(C)n1-c1cccc(C#N)c1`, the Activity in the data set on LNCaP [1] is 63%; in the data set on A549 [3] it was 350%. Further, the AC50 in the data set on LNCaP [2] was 1770 nM; with A549 [4], 2640 nM. The IC50 in data set [5] was 6810 nM; in [6], “Not Active”; in [7], “Not Active”; in data set [8], “Not Active”; in data set [9], “Not Active”; in [12], 76 nM. The Kinetic_solubility in [10] is > 49 µM. Further, the t1/2 in the data set on Liver microsome stood at 8.1 min. In [11], the permeability amounted to 229 ×10⁻⁶ cm/s.

Turning to `Cc1cccc(-n2cnc3cc(C(=O)N4CCCC(C)(C)C4)ccc32)c1`, the Activity in the data set on LNCaP [1] was 53%; in the data set on A549 [3] it was 127%. For the same molecule, the AC50 with LNCaP [2] is 4430 nM; in the data set on A549 [4], 743 nM. Besides, the IC50 was 1920 nM in data set [5]; “Not Active” in data set [6]; “Not Active” in data set [7]; “Not Active” in data set [8]; “Not Active” in [9]; 68 nM in data set [12]. Besides, in [10], the Kinetic_solubility was 5.6 µM. The t1/2 in the data set with Liver microsome was 1.8 min. Further, the permeability in [11] turned out to be 2260 ×10⁻⁶ cm/s.

As to `O=C(c1ccc2c(c1)ncn2-c1cccc(Cl)c1)N1CCCCC1`, the Activity turned out to be 85% in the data set on LNCaP [1] and 170% in the data set on A549 [3]. For the same molecule, in the data set on LNCaP [2], the AC50 amounted to 222 nM. Further, the IC50 in data set [5] is 1920 nM; in data set [6] it was “Not Active”; in data set [7], “Not Active”; in data set [8], “Not Active”; in data set [9], “Not Active”; in data set [12] it was 12 nM. In data set [10], the Kinetic_solubility was > 50 µM. For the same molecule, in the data set with Liver microsome, the t1/2 was determined as 6.4 min. Also, the permeability in data set [11] is 895 ×10⁻⁶ cm/s.

As to `O=C(c1ccc2c(c1)ncn2-c1cccc(C(F)(F)F)c1)N1CCCCC1`, the Activity in the data set with LNCaP [1] was 70%; with A549 [3], 173%. The results for the AC50 with LNCaP [2] and in the data set on A549 [4] were 2800 nM and 2640 nM, respectively. Besides, the IC50 in [5] is 6810 nM; in data set [6], “Not Active”; in data set [7] it was “Not Active”; in [8], “Not Active”; in data set [9], “Not Active”; in data set [12], 48 nM. Further, in data set [10], the Kinetic_solubility is > 55 µM. Moreover, in the data set with Liver microsome, the t1/2 turned out to be 4.4 min. This molecule returned a permeability in [11] of 1350 ×10⁻⁶ cm/s.

Turning to `COc1ccc(-n2cnc3cc(C(=O)N4CCCCC4)ccc32)cc1`, the figures for the Activity with LNCaP [1] and in the data set with A549 [3] were 69% and 174%, respectively. For the same molecule, the AC50 in the data set with LNCaP [2] came to 884 nM; in the data set with A549 [4], 662 nM. The IC50 in data set [5] was 1360 nM; in [6] it was “Not Active”; in [7], “Not Active”; in data set [8], “Not Active”; in data set [9], “Not Active”; in data set [12] it was 19 nM. The Kinetic_solubility in data set [10] was > 50 µM. The t1/2 in the data set with Liver microsome stood at 23 min. For the same molecule, in [11], the permeability worked out at 624 ×10⁻⁶ cm/s.

Values taken from ChEMBL document CHEMBL3102731, “Structure-activity relationship studies and biological characterization of human NAD(+)-dependent 15-hydroxyprostaglandin dehydrogenase inhibitors” (Bioorg Med Chem Lett, 2014).
